How the values were obtained:
[1] = target: T1, K18PL tau (Homo sapiens, UniProt P10636, P618L); assay: Heparin-induced K18PL tau fibrillization assay monitored by ThT fluorescence; format: biochemical; settings: Table 4; for Tau ThT Assay % Inhib. / inhibition at 80 µM: highest tested concentration (80 μM); for inhibition at 80 µM: read-out: Tau ThT Assay % Inhib.; for IC50 / Tau ThT Assay Log IC50: logarithm of IC50, K18PL tau ThT fluorescence inhibition; for IC50: read-out: Tau ThT Assay Log IC50 (converted)
T1 construct: (K18PL; amino acids 244-369); made in house
T1 sequence (P10636 561-686 P618L): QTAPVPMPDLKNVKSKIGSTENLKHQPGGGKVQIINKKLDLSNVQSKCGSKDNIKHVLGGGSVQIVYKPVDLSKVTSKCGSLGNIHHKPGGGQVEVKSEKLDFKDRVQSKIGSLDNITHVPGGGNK
Method: Tau fibril formation reactions were performed essentially as described (Crowe, A., Ballatore, C., Hyde, E., Trojanowski, J. Q., and Lee, V. M. Y. (2007) Biochemical and Biophysical Research Communications 358, 1-6). K18PL (2 μl of a 30 μM stock that also contained 0.24 μM Alexa Red-labeled K18PL) was dispensed into black 1536-well plates (Grenier) using a solenoid-based dispenser. Following transfer of 23 nL of test compound or DMSO vehicle by a pin tool from compound library plates, 2 μl/well of 40 μM heparin in reagent buffer was dispensed and the plate was centrifuged for 15 s at 1000 rpm in a table-top centrifuge. The fibrillization reaction proceeded for 6 hours at 37° C. in a humidified incubator (Kalypsys).
K18PL fibril formation was quantified with a ThT assay as previously described (Crowe, A., Ballatore, C., Hyde, E., Trojanowski, J. Q., and Lee, V. M. Y. (2007) Biochemical and Biophysical Research Communications 358, 1-6). Briefly, 1 μl/well of 62.5 μM ThT (Sigma) in 100 mM glycine, pH 8.5 (12.5 μM final concentration) was dispensed into 1536-well plates after completion of the fibrillization reaction and incubated at room temperature for 1 hour. Plates were read on an Envision fluorescence plate reader with an excitation of 450 nm and an emission setting of 510 nm.
Compound effects on tau assembly were determined for the ThT and FP assays using the formula 1−(Fcompound− FDMSO)/( Fcontrol− FDMSO), where Fcontrol denotes the median plate fluorescence values (ThT assay) or mP values (FP assay) of the non-fibrillizing K18 KD control wells, FDMSO denotes the median value of the DMSO control wells, and Fcompound denotes the compound well values. The resulting values were multiplied by 100 to obtain the percent inhibition of tau fibril formation.
(§1) The solubility of test compounds in the sodium acetate buffer used for subsequent fibrillization reactions was determined by turbidimetric measurements. Compounds were then evaluated in a heparin-induced tau assembly assay, in which the fibrillization of the truncated K18 tau fragment (comprised of four MT-binding repeats) bearing the P301L mutation (K18PL) found in FTDP-17, was monitored by thioflavine-T (ThT) binding and fluorescence (FIG. 3A). (Crowe, A.; et al., Identification of aminothienopyridazine inhibitors of tau assembly by quantitative high-throughput screening. Biochemistry 2009, 48, 7732-45.) The inhibitory activity of test compounds was then confirmed with an orthogonal sedimentation assay in which compound-treated fibrillizing mixtures were centrifuged and quantitation of K18PL tau in the soluble and insoluble fraction was performed by densitometric analyses of SDS-PAGE (FIG. 3B). […] Thus, the tau fibrillization assay was repeated in which both DMSO- and compound-treated mixtures were initially centrifuged for 30 min. prior to incubation (i.e., at time zero of the fibrillization reaction) to remove any pelletable material.

[2] = target: T1, K18PL tau; assay: K18PL tau centrifugation (sedimentation) assay, SDS-PAGE densitometry; format: biochemical; settings: Table 4; K18PL tau centrifugation assay
Method: The determination of compound-induced effects on the amount of tau that remains soluble upon centrifugation, and EM visualization of tau species following incubation with test compounds, were as previously described (Crowe, A., Ballatore, C., Hyde, E., Trojanowski, J. Q., and Lee, V. M. Y. (2007) Biochemical and Biophysical Research Communications 358, 1-6).
as §1

Row | SMILES | Tau ThT Assay % Inhib. [1] [%] | Tau Cent. Assay % Soluble [2] [%] | inhibition at 80 µM [1] [%] | IC50 [1] [µM] | Tau ThT Assay Log IC50 [1]
1 | CCOC(=O)c1nn(-c2ccc([N+](=O)[O-])cc2)c(=O)c2c(N)scc12 [CNDR-51352, Ethyl 5-amino-3-(4-nitrophenyl)-4-oxo-3,4-dihydrothieno[3,4-d]pyridazine-1-carboxylate] |  | 59 | 69 | 50.1 | 
2 | CCOC(=O)c1nn(-c2ccc(Cl)cc2)c(=O)c2c(NC)scc12 [CNDR-51360, Ethyl 3-(4-chlorophenyl)-5-(methylamino)-4-oxo-3,4-dihydrothieno[3,4-d]pyridazine-1-carboxylate] |  | 51 | 39 | 5.01 | 
3 | CCOC(=O)c1nn(-c2ccc(OC(F)(F)F)cc2)c(=O)c2c(N)scc12 [CNDR-51369, Ethyl 5-amino-4-oxo-3-(4-(trifluoromethoxy)phenyl)-3,4-dihydrothieno[3,4-d]pyridazine-1-carboxylate] |  | 29 | 41 | 2 | 
4 | Nc1scc2c(C(=O)O)nn(-c3ccc(OC(F)(F)F)cc3)c(=O)c12 [CNDR-51370, 5-Amino-4-oxo-3-(4-(trifluoromethoxy)phenyl)-3,4-dihydrothieno[3,4-d]pyridazine-1-carboxylic acid] |  | 65 | 88 | 6.31 | 
5 | Nc1scc2c(C(=O)O)nn(-c3ccc(O)cc3)c(=O)c12 [CNDR-51374, 5-Amino-3-(4-hydroxyphenyl)-4-oxo-3,4-dihydrothieno[3,4-d]pyridazine-1-carboxylic acid] |  | 70 | 84 |  | −5.4
6 | CC(C)NC(=O)c1nn(-c2ccc(OC(F)(F)F)cc2)c(=O)c2c(N)scc12 [CNDR-51375, 5-Amino-N-isopropyl-4-oxo-3-(4-(trifluoromethoxy)phenyl)-3,4-dihydrothieno[3,4-c]pyridazine-1-carboxamide] |  | 42 | 67 |  | 
7 | CC(C)NC(=O)c1nn(-c2ccc(O)cc2)c(=O)c2c(N)scc12 [CNDR-51376, 5-Amino-3-(4-hydroxyphenyl)-N-isopropyl-4-oxo-3,4-dihydrothieno[3,4-d]pyridazine-1-carboxamide] |  | 84 | 86 |  | −4.8
8 | CCOC(=O)c1nn(-c2cccc(Cl)c2)c(=O)c2c(N)scc12 [CNDR-51387] | 90 | 71 |  |  | −5.7
9 | Nc1scc2c(C(=O)O)nn(-c3cccc(Cl)c3)c(=O)c12 [CNDR-51388, 5-Amino-3-(3-chlorophenyl)-4-oxo-3,4-dihydrothieno[3,4-d]pyridazine-1-carboxylic acid] |  | 71 | 92 |  | −5.8
10 | Nc1scc2c(C(=O)O)nn(-c3ccc(Br)cc3)c(=O)c12 [CNDR-51389, 5-Amino-3-(4-bromophenyl)-4-oxo-3,4-dihydrothieno[3,4-d]pyridazine-1-carboxylic acid] |  | 78 | 95 | 3.16 | 
11 | CC(C)NC(=O)c1nn(-c2cccc(Cl)c2)c(=O)c2c(N)scc12 [CNDR-51391, 5-Amino-3-(3-chlorophenyl)-N-isopropyl-4-oxo-3,4-dihydrothieno[3,4-d]pyridazine-1-carboxamide] |  | 62 | 83 | 1.26 | 
12 | CCOC(=O)c1nn(-c2ccc(Cl)cc2)c(=O)c2c(N)sc(Cl)c12 [CNDR-51393, Ethyl 5-amino-7-chloro-3-(4-chlorophenyl)-4-oxo-3,4-dihydrothieno[3,4-d]pyridazine-1-carboxylate] |  | 65 | 88 |  | −5.7
13 | Nc1scc2c(C(=O)O)nn(-c3ccc(F)cc3)c(=O)c12 [CNDR-51395, 5-Amino-3-(4-fluorophenyl)-4-oxo-3,4-dihydrothieno[3,4-d]pyridazine-1-carboxylic acid] |  | 83 | 84 |  | −5.7
14 | Nc1scc2c(C(=O)NC3CC3)nn(-c3ccc(F)cc3)c(=O)c12 [CNDR-51397, 5-Amino-N-cyclopropyl-3-(4-fluorophenyl)-4-oxo-3,4-dihydrothieno[3,4-d]pyridazine-1-carboxamide] |  | 78 | 88 |  | −5.6
15 | CCOC(=O)c1nn(-c2ccc(I)cc2)c(=O)c2c(N)scc12 [CNDR-51404, Ethyl 5-amino-3-(4-iodophenyl)-4-oxo-3,4-dihydrothieno[3,4-d]pyridazine-1-carboxylate] |  | 63 | 89 | 2.51 | 

Next, values leading:

Row | Tau ThT Assay % Inhib. [1] [%] | Tau Cent. Assay % Soluble [2] [%] | inhibition at 80 µM [1] [%] | IC50 [1] [µM] | Tau ThT Assay Log IC50 [1] | SMILES
16 | 8 | 17 |  |  |  | CCOC(=O)c1nn(-c2ccc(C(C)C)cc2)c(=O)c2c(N)scc12 [CNDR-51347]
17 |  | 67 | 74 | 1.26 |  | CCOC(=O)c1nn(-c2ccc(N)cc2)c(=O)c2c(N)scc12 [CNDR-51355, Ethyl 5-amino-3-(4-aminophenyl)-4-oxo-3,4-dihydrothieno[3,4-d]pyridazine-1-carboxylate]
18 |  | 69 | 81 |  | −5.3 | CCOC(=O)c1nn(-c2ccc(O)cc2)c(=O)c2c(N)scc12 [CNDR-51363, Ethyl 5-amino-3-(4-hydroxyphenyl)-4-oxo-3,4-dihydrothieno[3,4-d]pyridazine-1-carboxylate]
19 |  | 27 | 48 | 10 |  | CCOC(=O)c1nn(-c2ccc(C(F)(F)F)cc2)c(=O)c2c(N)scc12 [CNDR-51373, Ethyl 5-amino-4-oxo-3-(4-(trifluoromethyl)phenyl)-3,4-dihydrothieno[3,4-d]pyridazine-1-carboxylate]
20 |  | 77 | 93 | 3.16 |  | NNC(=O)c1nn(-c2ccc(Cl)cc2)c(=O)c2c(N)scc12 [CNDR-51378, 5-Amino-3-(4-chlorophenyl)-4-oxo-3,4-dihydrothieno[3,4-d]pyridazine-1-carbohydrazide]
21 |  | 63 | 77 |  | −6.0 | CCOC(=O)c1nn(-c2ccc(F)cc2)c(=O)c2c(N)scc12 [CNDR-51394, Ethyl 5-amino-3-(4-fluorophenyl)-4-oxo-3,4-dihydrothieno[3,4-d]pyridazine-1-carboxylate]
22 |  | 77 | 89 |  | −5.8 | CC(C)NC(=O)c1nn(-c2ccc(F)cc2)c(=O)c2c(N)scc12 [CNDR-51396, 5-Amino-3-(4-fluorophenyl)-N-isopropyl-4-oxo-3,4-dihydrothieno[3,4-d]pyridazine-1-carboxamide]
23 | 87 | 90 |  |  | −5.9 | Cc1nn(-c2ccc(Cl)cc2)c(=O)c2c(N)scc12 [CNDR-51400]
24 | 85 | 44 |  |  | −6.0 | Nc1scc2c(-c3ccccc3)nn(-c3ccc(Cl)cc3)c(=O)c12 [CNDR-51405]

From US20130029983A1, “AMINOTHIENOPYRIDAZINE INHIBITORS OF TAU ASSEMBLY” (priority 2009, published 2013)
